From patent US20030180349A1, “Respiratory infection prevention and treatment with terpene-containing compositions” (priority 2001, published 2003)

Tests used:
[1] = Solution levels of terpenes in water (no surfactant, high-shear blending); type: physicochemical; conditions: for Solution levels for various terpenes: Level: maximum level solubilized in water without surfactant
Mycoplasma iowae = test: Effect of citral on growth of Mycoplasma iowae (color changing units); type: cell-based
Method: M. iowae is a known avian respiratory disease agent. […] Mycoplasma iowae were incubated at 37° C. in R2 (Chen, T. A., J. M. Wells, and C. H. Liao. 1982. Cultivation in vitro: spiroplasmas, plant mycoplasmas, and other fastidious, walled prokaryotes. pp. 417-446. in Phytopathogenic prokaryotes, V. 2, M. S. Mount and G. H. Lacy (ed.), Academic Press, New York) broth. One to 2-day old cultures were observed under a dark-field microscope to ensure cells were in filamentous form before treatment. Cell suspensions were vortexed to ensure they were evenly mixed before and an aliquot of 0.5 mL was dispensed into a sterile tube. […] The treated cell suspension was incubated for 24 hrs before the color changing units (CCUs) were determined by a 10-fold serial dilution in fresh R2. All treatments were duplicated. […] All culture tubes were incubated for 15 days before final readings were taken. A comparison was made of the effect of 24-hr and 48-hr treatment times. The CCUs were determined by taking treated cell suspension from the same treated tube 24 hrs or 48 hrs after treatment.

E. coli = conditions: cited from earlier work
[2] = Break down / loss of potency of terpenes in the presence of oxygen; type: physicochemical; conditions: 500 ppm solution
Excerpt: Terpenes will break down in the presence of oxygen. Citral, for example, is an aldehyde and will decay (oxygenate) over a period of days.

erythrocytes = type: cell-based, Human
Method: These mixtures were incubated for 20 minutes.

H. pylori = conditions: cited from earlier work
Mycoplasma pneumoniae = test: In vitro effectiveness against Mycoplasma pneumoniae (color change); type: cell-based; conditions: 40 hours treatment
Method: Terpene beta-ionone or L-carvone was first mixed well with Tween® 80 to have a final Tween® 80 concentration of 5%. This mixture was then used to make concentrations of 2500 ppm in sterile phosphate buffer saline (PBS) by blending the mixture in PBS for 40 seconds. This 2500 ppm solution was then diluted to 500 ppm, 250 ppm, and 125 ppm with PBS.
PBS containing 25 ppm Tween® 80 or PBS alone was used to treat cells suspension as controls.
A log phase (2-3-day old) culture of Mycoplasma pneumoniae was mixed with each of the above three concentrations of terpene at 1:1 (volume) ratio (in this case, 1 mL of cell suspension was added to 1 mL of terpene).
The culture and terpene mixture was then incubated at 37° C. for 40 hours. After 40 hours of treatment, 10-fold serial dilution was performed to 10 (−10) by first taking 0.1 mL of the treated culture suspension was added into 0.9 mL of fresh SP4 (Whitcomb (1983); SP4 media is commercially available (Remel, Lenexa, Kans., USA)). All the tubes were then incubated at 37° C., and a color change of the medium was used for the indication of the cells that either were killed or survived from the treatment. Color change was from red to yellow because Mycoplasma pneumoniae produces acid during its growth.

[3] = 62.5 ppm (5% Tween 80, PBS), three days after 10-fold dilution
[4] = 62.5 ppm, 6 days after 10-fold dilution
[5] = 125 ppm (5% Tween 80, PBS), three days after 10-fold dilution
[6] = 125 ppm, 6 days after 10-fold dilution
[7] = 250 ppm (5% Tween 80, PBS), three days after 10-fold dilution
[8] = 250 ppm, 6 days after 10-fold dilution

Row | Compound | Solution levels for various terpenes: Level [1] [ppm] | color change of medium / killing effect (Mycoplasma pneumoniae; [3]) | color change of medium / killing effect (Mycoplasma pneumoniae; [4]) | color change of medium / killing effect (Mycoplasma pneumoniae; [5]) | color change of medium / killing effect (Mycoplasma pneumoniae; [6]) | color change of medium / killing effect (Mycoplasma pneumoniae; [7]) | color change of medium / killing effect (Mycoplasma pneumoniae; [8]) | Concentration at which erythrocytes lyse (erythrocytes) [ppm] | other results
1 | C=C(C)C1CC=C(C)C(=O)C1 (stereo not drawn) [Carvone] | 500 |  |  |  |  |  |  |  | 
2 | CC(C)=CCCC(C)=CC=O [Citral, 3,7-dimethyl-2,6-octadien-1-al] |  |  |  |  |  |  |  |  | stable suspension can be formed up to ([1]; suspension): about 2500 ppm; color changing units after treatment (Mycoplasma iowae; 62.5 ppm, 24 hr (Table 4)): 10^6 CCUs; color changing units after treatment (Mycoplasma iowae; 62.5 ppm, 24 hrs (Table 3)): 10^8 CCUs; color changing units after treatment (Mycoplasma iowae; 62.5 ppm, 48 hr (Table 4)): 10^6 CCUs; color changing units after treatment (Mycoplasma iowae; 125 ppm, 24 hr (Table 4)): 10^7 CCUs; color changing units after treatment (Mycoplasma iowae; 125 ppm, 24 hrs (Table 3)): 10^8 CCUs; color changing units after treatment (Mycoplasma iowae; 125 ppm, 48 hr (Table 4)): 10^6 CCUs; color changing units after treatment (Mycoplasma iowae; 250 ppm, 24 hr (Table 4)): 10^5 CCUs; color changing units after treatment (Mycoplasma iowae; 250 ppm, 24 hrs (Table 3)): 10^7 CCUs; color changing units after treatment (Mycoplasma iowae; 250 ppm, 48 hr (Table 4)): 10^4 CCUs; citral concentration with bactericidal effect (E. coli): 0.08%; citral in growth media that reduced the concentration of E. coli (E. coli): more than 0.01%; time in which solution loses half its potency [2]: 2-3 weeks; concentration that will lyse human erythrocytes (erythrocytes; human, 20 min): about 1000 ppm
3 | CC(C)=CCC/C(C)=C/CO [Geraniol] | 500 |  |  |  |  |  |  |  | concentration that inhibited the growth of H. pylori in vitro (H. pylori): 2 mg/L
4 | CC(=O)/C=C/C1=C(C)CCCC1(C)C [b-ionone] | 500 | did not change color at all | only the first tube | did not change color at all | may have completely killed all cells | did not change color at all | may have completely killed all cells | 2000 | 
5 | L-carvone |  | no killing effects | second and third tube | no killing effects | second and third tube | no killing effects | second and third tube | 250 | 
6 | Terpeniol | 500 |  |  |  |  |  |  |  | 
